# Laboratory results: a melting point compilation (Tetko et al.)
row,SMILES,melting point
1,O=C1NC(=O)C2(CCNC2)N1 (configuration not stated),201 to 203 °C
2,Cn1cc(C(=O)CBr)c2ccccc21,132 to 134 °C
3,O=C1C=CC(=O)N1c1ccc(F)c(Cl)c1,159 to 161 °C
4,Cc1ncc(C(=O)O)c(C)n1,151 to 153 °C
5,O=S(=O)(Cl)c1cnn(Cc2ccccc2)c1,57 to 59 °C
6,CC1Oc2c(C(=O)O)cccc2C1C (configuration not stated),96 to 100 °C
7,CC(NC(=O)c1ccccc1Cl)C(=O)O (configuration not stated),137 to 139 °C
8,CC(C)(C)OC(=O)NC1CCN(CC(N)=S)CC1,169 to 171 °C
9,O=[N+]([O-])c1ccc2oc(S)nc2c1,241 to 243 °C
10,O=C1CCCN1Cc1nnc(S)o1,172 to 174 °C
11,CNC(c1ccc(Cl)cc1)c1cccnc1 (configuration not stated),44 to 46 °C
12,O=C(O)C1CC2CCC1O2 (configuration not stated),44 to 46 °C
13,CCOC(=O)c1c(C2CC2)csc1N,70 to 72 °C
14,O=C(O)C1CCCCN1Cc1ccc(F)cc1 (configuration not stated),218 to 220 °C
15,COC(=O)c1ncccc1O,76 to 78 °C
16,O=C(O)CCS(=O)(=O)c1ccc(Cl)cc1,181 to 183 °C
17,O=C(O)c1ccnc(NC2CCCC2)c1,296 to 298 °C
18,COc1cc(CN)cc(OC)c1,35 to 37 °C
19,O=C(O)[C@H](Cc1ccccc1)N1C(=O)c2ccccc2C1=O,179 to 181 °C
20,Nc1nnc(-c2ccccc2Cl)[nH]1,218 to 220 °C
21,O=C(O)c1cc([N+](=O)[O-])cnc1Br,135 to 137 °C
22,COCC(=O)Nc1ccc(O)cc1,139 to 141 °C
23,O=C(O)Cc1cc(Cl)ccc1Cl,101 to 103 °C
24,CCN1CCN(S(=O)(=O)c2cccc(N)c2)CC1,94 to 96 °C

row,SMILES,melting point
1,O=C(O)c1cnc2c(cnn2Cc2cccnc2)c1,248 to 250 °C
2,O=C(O)CCOc1ccc(-c2ccccc2)cc1,174 to 176 °C
3,COC(=O)N1CCC(N)CC1,40 to 42 °C
4,CCN(CC)S(=O)(=O)c1cc(C)c(C)c(N)c1,147 to 149 °C
5,C/C(=N/O)c1cnn(C)c1,144 to 146 °C
6,NCc1ccc(C(=O)Nc2ccc(F)cc2)cc1,145 to 147 °C
7,Nc1nc2c(Cl)cccc2[nH]1,143 to 145 °C
8,O=[N+]([O-])c1ccccc1CS(=O)(=O)Cl,64 to 66 °C
9,O=C1Nc2c(cc(F)cc2[N+](=O)[O-])C1=O,176 to 178 °C
10,CCCC1CNCCN1 (configuration not stated),59 to 61 °C
11,O=C1NC(=O)C2(CCSCC2)N1,265 to 267 °C
12,Oc1ccc2ccc(C(F)(F)F)nc2c1,255 to 257 °C
13,N#CCC(=O)Nc1ccccc1Cl,124 to 126 °C
14,O=[N+]([O-])c1cc(S(=O)(=O)Nc2ccccc2)ccc1Cl,87 to 89 °C
15,O=C(O)C1CC2COCC(C1)C2=O (configuration not stated),196 to 198 °C
16,O=C(O)C1(c2ccc(Br)cc2)CCCC1,176 to 178 °C
17,CSCCC(NC(=O)c1ccc2ccccc2n1)C(=O)O (configuration not stated),131 to 133 °C
18,O=c1cc(-c2ccccc2)c2ccccc2[nH]1,263 to 265 °C
19,O=C(CCl)c1ccc(F)c(Cl)c1,37 to 39 °C
20,Nc1cc(Cl)ccc1C(=O)N1CCCCC1CCO (configuration not stated),115 to 117 °C
21,O=Cc1sc(Nc2ccccc2)nc1Cl,164 to 166 °C
22,N#Cc1ccc(-c2nc(CCl)co2)cc1,132 to 134 °C
23,CC(C)(C)OC(=O)N1CCN(c2ccc(Cl)nn2)CC1,162 to 164 °C
24,O=C(O)c1ccn(-c2ccccc2F)n1,122 to 124 °C

row,SMILES,melting point
1,CC(C)S(=O)(=O)C(C)C(=O)O (configuration not stated),96 to 98 °C
2,CCN1CCN(c2ccc(Cl)cc2N)CC1,110 to 112 °C
3,O=C(O)CCc1cccc(F)c1F,106 to 108 °C
4,Cc1cc(C)n2c(C=O)cnc2n1,169 to 171 °C
5,c1ccc2nn(C3CCNC3)cc2c1 (configuration not stated),79 to 81 °C
6,CC(C)(CCC(=O)O)NC(=O)OC(C)(C)C,91 to 93 °C
7,COc1ccc(F)cc1C(C)N (configuration not stated),74 to 76 °C
8,O=C(NCCCCl)OCc1ccccc1,30 to 32 °C
9,NC(=O)NCCc1cccnc1,152 to 154 °C
10,O=C(Cc1nc2ccccc2[nH]1)NCc1ccccn1,176 to 178 °C
11,NC(=O)c1cnc(N)c(Cl)c1,217 to 219 °C
12,CCc1nnc(-c2ccc(N)cc2)o1,137 to 139 °C
13,COc1cc(C#N)c2ccccc2n1,133 to 135 °C
14,N#Cc1cnc2c(OC(F)F)cccc2c1Cl,120 to 122 °C
15,c1cn(-c2cncnc2)cn1,129 to 131 °C
16,Cn1cnnc1SCc1ccc(C(=O)O)o1,179 to 181 °C
17,O=C(O)C(F)(F)c1c[nH]c(=O)[nH]c1=O,188 to 190 °C
18,Cc1ncc(-c2ccc(N)cc2)o1,126 to 128 °C
19,CCC(N)(C(=O)O)c1ccccc1 (configuration not stated),285 to 287 °C
20,Cc1ccc2[nH]c3c(c2c1)CCCC3=O,185 to 187 °C
21,CC(Cl)C(=O)N1N=C(c2ccc(Cl)cc2)CC1c1ccco1 (configuration not stated),141 to 143 °C
22,O=c1occc2cccnc12,157 to 159 °C
23,O=C(O)c1cccnc1S(=O)(=O)C(F)(F)F,126 to 128 °C
24,Cc1cc(C)c(C(N)=O)c(S)n1,167 to 170 °C
